The text below walks through data of ChEMBL document CHEMBL1151142, “Triterpenoids and Flavonoids from Hyptis albida” (J Nat Prod, 1990).

The structures appear in SMILES notation.

The subject of this data set is Artemia. The data set is described as follows: Toxicity against brine shrimp. The following applies: in vivo. It is filed as organism-based.

For the molecule `CC1(C)CC[C@@]23CC[C@]4(C)[C@@](CC[C@@H]5[C@@]6(C)CC[C@H](O)C(C)(C)[C@@H]6CC[C@]54C)(OC2=O)[C@@H]3C1`, the median lethal concentration (LC50) – broadly, the concentration lethal to half of the exposed cells or organisms – is given as over 700 ppm.

On to `CC1(C)CC[C@@]23CC[C@]4(C)[C@@](OC2=O)([C@@H]3C1)[C@H]1O[C@H]1[C@@H]1[C@@]2(C)CC[C@H](O)C(C)(C)[C@@H]2CC[C@]14C`, for which the LC50 was over 700 ppm. In turn, `CC1(C)CC[C@@]23CC[C@]4(C)[C@@](C=C[C@@H]5[C@@]6(C)CC[C@H](O)C(C)(C)[C@@H]6CC[C@]54C)(OC2=O)[C@@H]3C1` showed an LC50 of over 700 ppm. The same measure for `COc1ccc(-c2oc3cc(OC)cc(O)c3c(=O)c2OC)cc1`: over 700 ppm; for `CC(=O)O[C@H]1CC[C@]2(C)[C@H]3CC=C4[C@@H]5CC(C)(C)CC[C@]5(C(=O)O)CC[C@@]4(C)[C@]3(C)CC[C@H]2C1(C)C` [ACETYL OLEANOLIC ACID]: over 700 ppm; for `COc1ccc(-c2cc(=O)c3c(O)cc(OC)cc3o2)cc1` [APIGENIN DIMETHYLETHER]: over 700 ppm. `C=C(C)[C@@H]1CC[C@]2(C(=O)O)CC[C@]3(C)[C@H](CC[C@@H]4[C@@]5(C)CC[C@H](O)C(C)(C)[C@@H]5CC[C@]43C)[C@@H]12` [BETULINIC ACID] displayed an LC50 of over 700 ppm.

Consider `COc1ccc(-c2oc3cc(O)cc(O)c3c(=O)c2OC)cc1` [ERMANIN], for which the median lethal concentration (LC50) is over 700 ppm. Turning to `COc1ccc(-c2cc(=O)c3c(O)c(OC)c(OC)c(OC)c3o2)cc1` [GARDENIN B], the LC50 was over 700 ppm.

For the molecule `COc1ccc(-c2cc(=O)c3c(O)c(OC)c(O)c(OC)c3o2)cc1` [NEVADENSIN], the median lethal concentration (LC50) is over 700 ppm. The same measure for `CC1(C)CC[C@]2(C(=O)O)CC[C@]3(C)C(=CC[C@@H]4[C@@]5(C)CC[C@H](O)C(C)(C)[C@@H]5CC[C@]43C)[C@@H]2C1` [OLEANOLIC_ACID]: over 700 ppm. `C[C@H]1[C@H](C)CC[C@]2(C(=O)O)CC[C@]3(C)C(=CC[C@@H]4[C@@]5(C)CC[C@H](O)C(C)(C)[C@@H]5CC[C@]43C)[C@H]12` [URSOLIC ACID] displayed a median lethal concentration (LC50) of over 700 ppm.
